Experimental data reported in US20260008801A1, “BIO-BASED SURFACTANTS DERIVED FROM CARBOHYDRATES” (COÖPERATIE KONINKLIJKE COSUN U.A., priority 2022, published 2026).

Legend:
[1] = Solubility in water (excess of compound in 4 ml demi water); assay type: physicochemical
Experimental: Solubility is preferably solubility in aqueous solution, more preferably solubility in water, most preferably solubility in demineralised water. A skilled person knows how to assess such solubility.
Solubility in water was determined by preparing mixtures of an excess of compound dispersed in 4 ml demi water using a vortex at maximum speed for 1 min. […] 1 ml of the mixture was concentrated in vacuo to yield a solid. The mass of the solid was determined in mg to calculate the solubility in percentage by dividing by ten.

[2] = Foaming abilities, 1% compound solutions shaken by hand; assay type: physicochemical; design: key to FOAM: −: no foam formation; +: low foam formation; ++: moderate foam formation; +++: strong foam formation; details: Table E5; pH > 7.3
Experimental: Foaming abilities were evaluated at room temperature by shaking 1% compound solutions (2 ml) of pH 3, 7, and 12 by hand for 10 s. The pH of each solution was assessed with a pH meter at room temperature. […] The foam heights at the initial time were compared to one another after which the foaming abilities were classified according to no foam formation (−), low foam formation (+), moderate foam formation (++), and strong foam formation (+++).

[3] = Foaming power and stability, Ultra-Turrax, 0.4% aq. surfactant; assay type: physicochemical; details: Table E5.2
Experimental: Foaming power was also tested at room temperature with 5 mL of 0.4% aq. surfactant (20 mg) solution in a 50 mL measuring cylinder. After performing the Ultra-Turrax (a registered trademark for a high-performance dispersing instrument) for 20 seconds (8000 rpm), the initial height of the foam was measured for foam height. (volume in mL). Every time step of, 1, 3, 5, 10, 30, 60 minutes was noted. In addition, after 24 hours the stability was checked. Particularly, foaming power and stability of the surfactants were performed using an IKA Ultra-Turrax T25 with an 18 G dispersing element. At room temperature, an aqueous solution of 5 mL 0.4% surfactant in a 50 mL measuring cylinder (2.20 cm diameter) was mixed with the Ultra-Turrax for 20 seconds at 8000 rpm. The foam height (volume in mL) was denoted for 0, 1, 3, 5, 10, 30, 60 min and 24 hours. In addition, after 24 hours the stability was checked.

[4] = Surface tension measurements, Wilhelmy plate (surface tension, CMC); assay type: physicochemical
Experimental: Surface tension measurements were performed with a Biolin Scientific Sigma701 automatic tension meter equipped with a Wilhelmy plate made of platinum (±0.5 mN/m). […] The number of experimental points is related to the compound's/surfactant's solubility and available quantity. All compound/surfactant solutions were allowed to stand 12 h before being measured. The platinum plate was thoroughly cleaned with demi water and flame-dried before each measurement. The CMC of each compound/surfactant was determined at the minimum of a breakpoint of a conventional plot of surface tension versus compound/surfactant concentration. DCMC was obtained by acquiring the surface tension at the CMC. The pC20 value was determined by taking the minus log of the concentration compound/surfactant at a surface tension of 52 mN/m.

[5] = system: Zein; assay: Zein solubilisation (skin irritation potential); details: pH 7; SDS set as 100
Experimental: Zein solubilisation was measured to determine the irritation of the surfactants. Zein is a simple protein found in corn. It is a very simple mimic of skin protein, the more solubilised by your material the harsher the potential to irritate and dry the skin. This method is a quick screen and provides indicative data. The procedure is 1) Weight 2-2.5 ml Eppendorf's on a 4 dp balance. 2) Weight out as accurately as possible 70 mg of Zein. 3) Add to the Eppendorf and reweigh. 4) Make your surfactant dilutions. 5) Add 1 ml of the surfactant dilution to the Eppendorf. 6) Place this on a rotary mixer for 20 mins at 20 rpm at RT. 7) Remove and centrifuge for 4 mins at highest speed available on a micro centrifuge 8) Discard the supernatant making sure as much of it possible is removed. 9) Repeat with water, centrifuge and discard supernatant. 10) With the Eppendorf lid open, place at 50° C. overnight to dry (48 hours required). 11) Re-weigh the next day. 12) Calculate the amount of Zein solubilised. The obtained data allows comparison of surfactants and their harshness to skin. Decisions for in vivo testing can be based on good Zein results.
The skin irritation potential of the surfactants was investigated using zein solubilisation, which is a commonly known assay. Zein is a very simple mimic of skin protein. The more zein is solubilized by the surfactant the harsher the potential to irritate and dry the human skin. […] The surfactants were measured at different pH values, a pH of 4-5, 7 and at their original pH as is.

[6] = system: activated sludge from a municipal wastewater treatment plant (WWTP); assay: Biodegradability, OECD 301A DOC Die-Away Test (adjusted); details: inoculum with compound and sodium acetate
Experimental: Biodegradability of compounds was assessed. The compound is added to an inoculate of activated sludge from a municipal wastewater treatment plant (WWTP). The experiment relies on the basic principles of the 301A DOC Die-Away Test described in the OECD guidelines for readily biodegradable substances. A small adjustment was made where the measuring is not done in conical flasks but, instead, in serum vials closed with butylrubber stoppers. This allowed measurement of the evolution of CO2 and O2 over time. In general, the experiment involves the experimental incubation (inoculum and compound), along with a blank control (inoculum no compound), a positive control (inoculum and sodium acetate), and controls for abiotic degradation (compound in medium), adsorption (compound with sterilized inoculum), and toxicity (inoculum with compound and sodium acetate).
The fresh sludge was conditioned overnight by bubbling with air at room temperature. […]
Incubations were prepared containing approximately 70 mg/L surfactant and 3 ml sludge in a final volume of 30 ml mineral medium in a borosilicate serum vial crimp-sealed with a butyl rubber stopper. […] 1 ml samples were taken weekly for surfactant quantification and centrifuged 5 min at 20.000×g. […] CO2 was analyzed by measuring headspace gas on an Agilent 8890A/5977B GC-MS equipped with an Agilent 6 FT Porapak Q 80/10 column. […]

## CCCCCCCCN(C)C[C@H](O)[C@@H](O)[C@@H](O)[C@H](O)C(=O)O [Compound 31, N-methyl-N-octyl-D-galacturonic acid amine]
[1]
  solubility in H2O: 15%
[1]; Table E5
  SOLUBILITY (H2O): 15%
[1]; Table E5.2, water
  Solubility: 15%
[2]
  FOAM: ++
[3]; foam volume after 1 min
  Foamability (mL) after (min) 1: 4.5 mL
[3]; foam volume after 5 min
  Foamability (mL) after (min) 5: 4 mL
[3]; foam volume after 10 min
  Foamability (mL) after (min) 10: 4 mL
[4]; Table E5
  CMC (%): 1.15%
[4]; Table E5, room temperature, pH 7
  SURFACE TENSION: 32.067 mN/m
[4]; Table E5.2
  CMC (%): 1.15%
  Surface tension (nM/m): 32.1 mN/m
[4]; running text b302
  SURFACE TENSION: 31.5 mN/m
[5]
  zein score / skin irritation potential value: 1
[6]
  inhibition of breakdown of acetate (toxicity control): did not inhibit
